In this assay the target is T1, Substance-K receptor (Homo sapiens, UniProt P21452).
T1 sequence (P21452 whole entry): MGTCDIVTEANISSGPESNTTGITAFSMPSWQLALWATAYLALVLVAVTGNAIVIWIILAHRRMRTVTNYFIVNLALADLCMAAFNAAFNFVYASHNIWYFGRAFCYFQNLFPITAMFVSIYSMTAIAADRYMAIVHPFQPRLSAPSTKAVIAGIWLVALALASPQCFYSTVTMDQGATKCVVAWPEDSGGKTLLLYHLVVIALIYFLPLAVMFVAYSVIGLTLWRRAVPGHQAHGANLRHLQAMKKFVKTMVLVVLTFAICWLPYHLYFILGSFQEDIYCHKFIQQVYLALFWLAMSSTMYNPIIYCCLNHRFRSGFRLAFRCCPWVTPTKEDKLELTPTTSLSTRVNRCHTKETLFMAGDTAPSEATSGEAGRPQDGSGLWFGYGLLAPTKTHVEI
Put plainly: Binding affinity for human tachykinin receptor 2 was measured by using [125I]NKA as radio ligand.

The record followed here is ChEMBL document CHEMBL1144272, “Generation of a new class of hNK(2) receptor ligands using the 'fragment approach'” (Bioorg Med Chem Lett, 2005).

As a reminder, the Ki is a dissociation constant, usually derived from enzyme kinetics or from competition with a known ligand. A lower Ki goes with higher affinity.

In the case of `O=C(Nc1ccc(OCc2cc(F)cc(F)c2)cc1)N[C@@H](Cc1ccccc1)C(=O)NCCCN1CCOCC1`, the inhibition constant Ki came out at 500 nM.

In turn, `O=C(NCCCN1CCOCC1)[C@H](Cc1ccccc1)NC(=O)N(c1ccccc1)c1ccccc1` showed a Ki greater than 3000 nM.

With `O=C(Nc1ccc(Oc2cccc(F)c2)cc1)N[C@@H](Cc1ccccc1)C(=O)NCCCN1CCOCC1`, the Ki is 200 nM.

`CC(C)c1cccc(OC(C)(C)C(=O)N[C@H](Cc2ccccc2)C(=O)NCCCN2CCOCC2)c1`: the inhibitory constant (Ki) is greater than 1000 nM.

Compound `COc1ccc(Oc2ccc(NC(=O)N[C@@H](Cc3ccccc3)C(=O)NCCCN3CCOCC3)cc2)cc1` came in with a Ki of 310 nM.

For `O=C(Nc1ccc(OCc2ccccc2)cc1)N[C@@H](Cc1ccccc1)C(=O)NCCCN1CCOCC1` (stereo in doubt; 32a (L)), the inhibition constant (Ki) worked out at 1200 nM.

`O=C(Nc1ccc(Oc2ccc(OC(F)(F)F)cc2)cc1)N[C@@H](Cc1ccccc1)C(=O)NCCCN1CCOCC1` had a Ki greater than 100 nM.

In turn, `O=C(Nc1ccc(Oc2ccccc2)cc1)N[C@H](Cc1ccccc1)C(=O)NCCCN1CCOCC1` returned an inhibition constant Ki of 500 nM.

The compound `O=C(N[C@@H](Cc1ccccc1)C(=O)NCCCN1CCOCC1)c1cccc(-c2ccccc2)c1` displayed a Ki of 2000 nM. This Ki is about 4-fold higher than that of the compound before.

Regarding `CN(C(=O)N[C@@H](Cc1ccccc1)C(=O)NCCCN1CCOCC1)c1cccc(Oc2cccc(F)c2)c1`, the Ki was greater than 1000 nM.

The compound `O=C(N[C@H](Cc1ccccc1)C(=O)NCCCN1CCOCC1)c1ccccc1-c1ccccc1` registered a Ki of 3000 nM.

On to `O=C(Nc1ccc(Oc2ccc(C(F)(F)F)cc2)cc1)N[C@H](Cc1ccccc1)C(=O)NCCCN1CCOCC1`, for which the Ki was greater than 1000 nM.

`CC(C)(Nc1ccccc1Oc1ccccc1)C(=O)N[C@@H](Cc1ccccc1)C(=O)NCCCN1CCOCC1` showed a Ki greater than 3000 nM.
